Assay results taken from patent US12624057B2, “Bisphosphonate quinolone conjugates and uses thereof” (BIOVINC, LLC, priority 2016, dated 2026).
“Also recorded” adds a separate entry of the source.

Experiments:
[1] = 24 h
Protocol: Next, solutions were left for 24 h/37° C./shaking. After incubation, absorbance was measured once again. To assess for degradation of conjugate, values of absorbance taken at 0 hr and 24 hrs were compared.

[2] = system: biofilms of Aggregatibacter actinomycetemcomitans grown on HA; assay: Aa biofilms grown on HA; type: cell-based
[3] = system: biofilms of P. aeruginosa strain ATCC-15442; assay: Preformed biofilms on polystyrene, P. aeruginosa; type: cell-based, Pseudomonas aeruginosa; conditions: polystyrene substrate, tested range of concentrations
Protocol: Antimicrobial susceptibility testing of BP-ciprofloxacin against preformed biofilms of S. aureus strain ATCC-6538 and P. aeruginosa strain ATCC-15442: Strains cultured on appropriate agar plates (Columbia agar plate for S. aureus; MacConkey agar plate for P. aeruginosa) were transferred to liquid microbiological media and incubated for 24 h/37° C. under aerobic conditions. After incubation, strains were diluted to the density of 1 MF. The microbial dilutions were introduced to wells of 24-well plates containing HA discs as a substrate, or simply to polystyrene wells where the bottom surface of the wells served as the substrate for biofilm development. Strains were incubated at 37° C. for 4 hrs. Next, the microbe-containing solutions were removed from the wells. The surfaces, HA discs and polystyrene plates, were gently rinsed to leave adhered cells and to remove planktonic or loosely-bound microbes. Surfaces prepared in this manner were immersed in fresh TSB medium containing 0.24-125 mg/L of BP-ciprofloxacin conjugate. After 24 hrs of incubation at 37° C. the surfaces were rinsed using physiological saline solution and transferred to 1 mL of 0.5% saponin (Sigma-Aldrich, St Louis, MO). The surfaces were vortex-mixed vigorously for 1 minute to detach cells. Subsequently, all microbial suspensions were diluted 10 to 10^9 times. Each dilution ([…]) was cultured on the appropriate stable medium (MacConkey, Columbia for P. aeruginosa and S. aureus, respectively) and incubated at 37-C for 24 hours. After this time, the microbial colonies were counted and the number of cells forming biofilm was assessed. […]
Antimicrobial susceptibility testing of 6 against preformed biofilms of S. aureus strain ATCC-6538 and P. aeruginosa strain ATCC-15442: Strains cultured on appropriate agar plates (Columbia agar plate for S. aureus; MacConkey agar plate for P. aeruginosa) were transferred to liquid microbiological media and incubated for 24 hrs/37° C. under aerobic conditions. […] After this time, the microbial colonies were counted and the number of cells forming biofilm was assessed. […]

[4] = system: Aggregatibacter actinomycetemcomitans biofilms on titanium implants; assay: Rat jawbone peri-implant osteomyelitis model, first animal experiment; type: in vivo, Sprague-Dawley rats; conditions: for activity compared with ciprofloxacin in multiple doses (in words): conjugate 10 mg/kg single dose versus ciprofloxacin 30 mg/kg total; for efficacy (in words): single dose 0.1 and 1 mg/kg
Excerpt: Since this BP-ciprofloxacin conjugate is novel and has not been tested in vivo, we performed an initial safety and efficacy study in an animal model of peri-implant osteomyelitis. This model is a unique in-house jawbone peri-implant osteomyelitis model that was developed specifically for translational value to study biofilm-mediated disease and host response in vivo (Freire, et al, Development of animal model for Aggregatibacter actinomycetemcomitans biofilm-mediated oral osteolytic infection: a preliminary study. J Periodontol 2011; 82:778-89). […] After biofilms are established on the implants in vitro, they are surgically transferred to the jawbone of each rat. Animals are anesthetized, the cheeks are retracted and a transmucosal osteotomy is performed so implants can be manually inserted into the osteotomy and secured. Two biofilm-inoculated implants are placed in each rat (n=12 rats and 24 implants) in the palatal bone bilaterally.
To determine appropriate dosing concentrations, we calculated approximate initial doses for the conjugate based on previous studies and pharmacokinetic data using similar target and release strategies and also rodents (Houghton, et al., Linking bisphosphonates to the free amino groups in fluoroquinolones: preparation of osteotropic prodrugs for the prevention of osteomyelitis. J Med Chem 2008; 51:6955-69; Morioka, et al., Design, synthesis, and biological evaluation of novel estradiol-bisphosphonate conjugates as bone-specific estrogens. Bioorg Med Chem 2010; 18:1143-8). We expected that increasing doses of 0.1, 1 and 10 mg/kg BP-ciprofloxacin molar equivalents will allow us to determine antimicrobial activity in 2 test animals per group based on sample size estimations and previous experience with the animal model (Freire, et al, Development of animal model for Aggregatibacter actinomycetemcomitans biofilm-mediated oral osteolytic infection: a preliminary study. J Periodontol 2011; 82:778-89). Animals were dosed via intraperitoneal injection under general anesthesia, and all compounds were constituted in sterile physiological injectable saline at appropriate pH. One week after pharmacotherapy, all animals were sacrificed and resection of peri-implant tissues was performed, and tissues were immediately homogenized and processed for quantitative assessment of microbial load. Animals were monitored throughout the study period for local or systemic adverse effects of pharmacotherapy.
This animal model is an in-house jawbone peri-implant osteomyelitis model designed specifically to study biofilm-mediated disease and host response in vivo (Freire, et al, Development of animal model for Aggregatibacter actinomycetemcomitans biofilm-mediated oral osteolytic infection: a preliminary study. J Periodontol 2011; 82:778-89). […] After biofilms were established on the implants in vitro, they were surgically transferred to the jawbone of each rat. For surgery, animals were anesthetized with 4% isoflurane inhalant initially followed by intraperitoneal injection of ketamine (80-90 mg/kg) plus xylazine (5-10 mg/kg). Then local anesthesia was given via infiltration injection of bupivicaine 0.25% at the surgical site. Buprenorphine sustained release (1.0-1.2 mg/kg) was then given subcutaneously as preemptive analgesia before making initial incisions. Once anesthetized, the buccal mucosa of each rat was retracted and a transmucosal osteotomy was performed with a pilot drill into the alveolar ridge in the natural diastema of the anterior palate. Implants were then manually inserted into the osteotomy and secured into the bone until the platform is at mucosal level.

[5] = system: Aggregatibacter actinomycetemcomitans biofilms on titanium implants; assay: Rat jawbone peri-implant osteomyelitis model, second animal experiment; conditions: for reduction of mean CFU/gram of tissue versus control (in words): single high dose 10 mg/kg, 10 mg/kg
[6] = conjugate, single dose 10 mg/kg intraperitoneal
[7] = ciprofloxacin, 10 mg/kg 3×/week (30 mg/kg total)

## O=C(O)c1cn(C2CC2)c2cc(N3CCN(C(=O)Oc4ccc(CC(P(=O)(O)O)P(=O)(O)O)cc4)CC3)c(F)cc2c1=O [Compound 6, 1-cyclopropyl-7-(4-((4-(2,2-diphosphonoethyl)phenoxy)carbonyl)piperazin-1-yl)-6-fluoro-4-oxo-1,4-dihydroquinoline-3-carboxylic acid]
[1]
  stability in trypticase soy broth microbiological media: no degradation is observed after 24 hrs
[2]
  activity against Aa biofilm on HA (in words): effective antimicrobial activity
[2]; strain D7S-5 grown on HA
  concentration with effective antimicrobial profile: > 15 µg/mL
[3]
  MBIC50: No MBIC50 was observed
  MBIC90: no MBIC90 was observed for either pathogen
[3]; listed as BP-ciprofloxacin
  MBIC50: no MBIC^50 was observed
[4]; conjugate 10 mg/kg single dose
  greater bactericidal activity than multiple dosing of ciprofloxacin: ~1 log
[4]
  activity compared with ciprofloxacin in multiple doses (in words): nearly an order of magnitude greater activity than ciprofloxacin alone
[4]; listed as BCC
  activity compared with ciprofloxacin in multiple doses (in words): an order of magnitude greater activity than the parent antibiotic ciprofloxacin alone; also recorded: approximately as effective as ciprofloxacin given at 30 mg/kg total dose
[4]; listed as BP-ciprofloxacin
  activity compared with ciprofloxacin in multiple doses (in words): more than an order of magnitude greater activity than ciprofloxacin alone; also recorded: superior to multiple dosing of the parent antibiotic ciprofloxacin
[4]; [6]
  bacterial killing / bactericidal activity: 99%
  reduction of bacterial load versus negative control: 2 log
[4]; conjugate
  efficacy (in words): little effect; also recorded: no efficacy; also recorded: ineffective
[4]; conjugate, listed as BP-ciprofloxacin
  efficacy (in words): little effect; also recorded: not efficacious
[5]; majority of animals in the treatment groups
  peri-implant inflammation at resection (in words): non-inflamed peri-implant tissues
[5]; multiple low dose 0.3 mg/kg 3×/week
  significance of CFU reduction versus control (in words): not for the multiple low dose group
[5]; single dose 10 mg/kg
  kill of Aa in peri-implant tissue: approximately 6 log units
[5]
  reduction of mean CFU/gram of tissue versus control (in words): revealed significance for the single high dose of 6 treatment as compared to the control; also recorded: greatest CFU reduction and efficacy was observed at the single high dose; also recorded: greatest efficacy was observed at a single high dose
[5]; listed as BCC
  reduction of mean CFU/gram of tissue versus control (in words): greatest efficacy and was highly statistically significant; also recorded: greatest efficacy was again observed at a single high dose

## O=C(O)c1cn(C2CC2)c2cc(N3CCNCC3)c(F)cc2c1=O [ciprofloxacin, reference compound]
[4]; [7]
  bacterial killing: 90%
  reduction of bacterial load: 1 log
